{
  "source": "patent US7375086B2",
  "about": "“Modulators of Nod2 signaling” (The Regents of the University of Michigan, priority 2000, dated 2008)",
  "key": {"[1]": {"tested_on": "Nod2-Fpk3", "test": "Enforced oligomerization of Fpk3-Nod2 chimeric proteins, NF-κB reporter in HEK293T cells", "assay_type": "cell-based, human", "procedure": "HEK293T cells were transfected with of control plasmid (−) or plasmids producing the indicated Myc-tagged Fpk3Nod2 proteins. Extracts from equal number of cells was immunoprecipitated and immunoblotted with rabbit anti-Myc antibody. […] 2×10^5 HEK293T cells were transfected with 1 ng of the indicated plasmids in the presence of pBVIx-luc and pEF-BOS-β-gal. 8 hr post-transfection, cells were treated with 500 nM AP1510 (black bars) or left untreated (white bars). 24 hr post-transfection, the κB-dependent transcription was determined as described below. Values represent mean ±SD of triplicate cultures.\nIn the case of Nod1, its oligomerization appears to promote proximity of RICK and NF-κB activation. To test a similar role for Nod2, plasmids were constructed to express chimeric proteins in which wt or Nod2 mutants were fused to three tandem repeated dimerization domains of Fpk (Fpk3), which can be oligomerized by the cell-permeable ligand AP1510 (MacCorkle et al., Proc. Nat. Acad. Sci. U. S. A. 95: 3655-3660 [1998]). […] Because wt Nod2 alone induces NF-KB activation, we expressed suboptimal amounts of the chimeric Fpk3-Nod2 constructs into HEK293T cells. […] Similarly, NF-κB activation induced by a Nod2 P-loop mutant lacking the LRRs (K305RALRR), which have reduced ability to induce NF-κB activation, was enhanced by enforced oligomerization (FIG. 7C). […]"}, "[2]": {"tested_on": "NF-κB", "test": "NF-κB luciferase reporter assay in HEK293T cells transfected with control plasmid", "assay_type": "cell-based, human", "procedure": "Induction of NF-κB activation was determined in triplicate cultures of HEK293T cells transfected with 30 ng of Nod2 plasmid (open bars) or stimulated with 10 ng/ml of TNFα for 4 h (closed bars) and 70 ng of I-κBα S32A/S36A, IKKα K44A, IKKβ K44A, RICK (406-540) or RIP (558-671) expression plasmid in the presence of pBVIx-Luc and pEF-BOS-β-gal. Results are presented as a percent of values obtained with Nod2 and control plasmid. In the experiment shown, Nod2 and TNFα induced 58±8-fold and 14±1-fold activation of NF-κB, respectively. Values represent mean ±SD of triplicate cultures. […] Induction of NF-κB activation was determined from triplicate cultures of I×10^5 HEK293T cells co-transfected with the indicated plasmids and pBVIx-Luc in the presence of control plasmid pEF-BOS-β-gal. […]\n8 hr post-transfection, cells were treated with 10 μg/ml of each pathogen product, lipoteichoic acid (LTA) or peptidoglycan (PGN) from Staphylococcus aureus, lipopolysaccharide (LPS) from Escherichia coli 055:B5, mannan from Candida albicans 20A, synthetic soluble bacterial lipoprotein (SBLP) or left untreated (Control). 24 hr post-transfection, κB-dependent transcription was determined by luciferase activity relative and values normalized to β-galactosidase in triplicate cultures. […] Twenty-four hr post-transfection, κB-dependent transcription was determined as described above. […]"}, "[3]": {"tested_on": "NF-κB", "test": "NF-κB reporter assay in parental Rat1 fibroblasts", "assay_type": "cell-based, rat", "procedure": "Induction of NF-κB activation was determined in triplicate cultures of HEK293T cells transfected with 30 ng of Nod2 plasmid (open bars) or stimulated with 10 ng/ml of TNFα for 4 h (closed bars) and 70 ng of I-κBα S32A/S36A, IKKα K44A, IKKβ K44A, RICK (406-540) or RIP (558-671) expression plasmid in the presence of pBVIx-Luc and pEF-BOS-β-gal. Results are presented as a percent of values obtained with Nod2 and control plasmid. In the experiment shown, Nod2 and TNFα induced 58±8-fold and 14±1-fold activation of NF-κB, respectively. Values represent mean ±SD of triplicate cultures. […] Induction of NF-κB activation was determined from triplicate cultures of I×10^5 HEK293T cells co-transfected with the indicated plasmids and pBVIx-Luc in the presence of control plasmid pEF-BOS-β-gal. Values represent mean ±SD of triplicate cultures.\nNF-κB activation assays. NF-κB activation assays were performed as described (Inohara et al., [1999] supra, Inohara et al., [2000], supra). […] 24 hr post-transfection, cell extracts were prepared and its relative luciferase activity was measured as described (Inohara et al., [1999] supra, Inohara et al., [2000], supra). […]"}, "[4]": {"tested_on": "NF-κB", "test": "NF-κB binding activity by EMSA in nuclear extracts of PBMNC", "assay_type": "cell-based, human", "settings": "PBMNC nuclear extracts, EMSA", "procedure": "FIGS. 20C and D show PBMNC analyzed for expression of IL-1β (C) and A1 (D) transcripts by quantitative RT-PCR.\nGenotyping was performed using a ddNTP primer extension system. Nuclear extracts from LPS-stimulated cells were pre-incubated with antibody specific for p50 subunit of NF-κB to monitor the size of the NF-κB-DNA complex. cDNA was amplified with specific primers for human IL-1β, glyceraldehyde-3-phosphate-dehydrogenase (GAPDH) as described (5) and A1 (5′-[…]-3′ (SEQ ID NO: 53) and 5′-[…]-3′ (SEQ ID NO:54)). The levels of IL-1β and A1 transcripts normalized to that of GAPDH were expressed relative to those in untreated cells that were considered as baseline. Specificity of the desired PCR products was determined by melting curve analysis. Histograms represent the mean ±S.D. of triplicate analyses.\nThe NOD2 variants associated with Crohn's disease, R702W, G908R and L1007fsinsC, occur on the same haplotype background, which includes the common P268S polymorphism (Hugot et al., Nature 411:599 [2001]; Ogura et al., Nature 411:603 [2001]). To compare the ability of normal and mutant NOD2 proteins to induce NF-κB activity in response to MDP, the NOD2 proteins were expressed in cells and evaluated in a functional assay. […] The role of NOD2 in the recognition of MDP by primary cells from normal and Crohn's disease patients was next determined. A panel of healthy and Crohn's disease individuals were genotyped for the disease-associated NOD2 alleles and two individuals (one without clinical evidence of disease and one individual with Crohn's disease) who were homozygous for the loss-of-function L1007fsinsC mutation were identified (FIG. 20A). The identification of apparently healthy individuals homozygous for L1007fsinsC is expected in that the penetrance of the L1007fsinsC mutation is not complete (Hugot et al., supra; Ogura et al., supra; Hampe et al., Lancet 357:1925 [2001]; Ahmad et al., Gastroenterology 122:854 [2002]). Peripheral blood mononuclear cells (PBMNC) that are known to express NOD2 were isolated, incubated with MDP or LPS and NF-κB activation was assessed in nuclear extracts by an electrophoretic mobility shift assay (EMSA)."}, "[5]": {"target": "T1, TLR2 (Homo sapiens, UniProt O60603)", "T1 construct": "expressed in transfected cells", "T1 sequence (O60603 21-784, species assumed)": "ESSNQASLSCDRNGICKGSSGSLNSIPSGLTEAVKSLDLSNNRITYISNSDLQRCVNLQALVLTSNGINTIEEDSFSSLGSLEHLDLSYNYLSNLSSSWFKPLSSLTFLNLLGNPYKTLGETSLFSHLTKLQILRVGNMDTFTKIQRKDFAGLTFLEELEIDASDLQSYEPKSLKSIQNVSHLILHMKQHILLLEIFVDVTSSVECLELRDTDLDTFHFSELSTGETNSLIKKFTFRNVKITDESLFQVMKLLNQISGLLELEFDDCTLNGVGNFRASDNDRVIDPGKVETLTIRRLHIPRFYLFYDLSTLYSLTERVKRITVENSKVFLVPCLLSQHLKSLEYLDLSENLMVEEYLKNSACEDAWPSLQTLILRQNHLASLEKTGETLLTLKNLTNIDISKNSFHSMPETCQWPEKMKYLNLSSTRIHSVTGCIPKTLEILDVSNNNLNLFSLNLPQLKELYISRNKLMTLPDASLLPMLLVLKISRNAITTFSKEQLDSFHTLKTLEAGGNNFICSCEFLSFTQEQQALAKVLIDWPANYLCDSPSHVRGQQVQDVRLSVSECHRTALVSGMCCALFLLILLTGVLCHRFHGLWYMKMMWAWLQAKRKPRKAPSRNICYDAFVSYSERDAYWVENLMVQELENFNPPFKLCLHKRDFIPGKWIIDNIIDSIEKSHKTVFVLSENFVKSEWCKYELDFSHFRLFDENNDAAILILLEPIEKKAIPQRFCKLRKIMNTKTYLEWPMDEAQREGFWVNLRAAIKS", "test": "NF-κB reporter assay in HEK293 cells stably transfected with TLR2", "assay_type": "cell-based", "settings": "MDP 100 ng/ml, sBLP 1000 ng/ml", "procedure": "Molecules with two copies (2mer) or four copies (4mer) of GlcNAc-MurNAc with attached L-Ala-D-isoGln and their counterparts lacking dipeptide (2mer-aa, 4mer-aa) were synthesized as described (Inamura et al., Tetrahedron Lett. 42:7613 [2001]). Eight hours post-transfection, the indicated amount of each compound was added to the cells and the ability of each compound to activate NF-κB was determined as above. The ability of MDP (100 ng/ml) and sBLP (1000 ng/ml) to activate NF-κB was determined by transfection of 0.3 ng pcDNA3-Nod2 (Nod2) or control plasmid (−) into HEK293 cells or in HEK293 cells stably transfected with TLR2 (TLR2) or with control plasmid (−) and reporter pBxIV-luc and pEF-BOS-β-gal plasmids. Values represent the mean of normalized data ±S.D. of triplicate cultures."}, "[6]": {"target": "T2, Nod2 (Homo sapiens, UniProt Q9HC29, R703H)", "T2 construct": "ligated to generate an unique cDNA containing the entire open reading frame of Nod2; expressed in transfected cells; host or cells: HEK293T", "T2 sequence (Q9HC29 whole entry R703H)": "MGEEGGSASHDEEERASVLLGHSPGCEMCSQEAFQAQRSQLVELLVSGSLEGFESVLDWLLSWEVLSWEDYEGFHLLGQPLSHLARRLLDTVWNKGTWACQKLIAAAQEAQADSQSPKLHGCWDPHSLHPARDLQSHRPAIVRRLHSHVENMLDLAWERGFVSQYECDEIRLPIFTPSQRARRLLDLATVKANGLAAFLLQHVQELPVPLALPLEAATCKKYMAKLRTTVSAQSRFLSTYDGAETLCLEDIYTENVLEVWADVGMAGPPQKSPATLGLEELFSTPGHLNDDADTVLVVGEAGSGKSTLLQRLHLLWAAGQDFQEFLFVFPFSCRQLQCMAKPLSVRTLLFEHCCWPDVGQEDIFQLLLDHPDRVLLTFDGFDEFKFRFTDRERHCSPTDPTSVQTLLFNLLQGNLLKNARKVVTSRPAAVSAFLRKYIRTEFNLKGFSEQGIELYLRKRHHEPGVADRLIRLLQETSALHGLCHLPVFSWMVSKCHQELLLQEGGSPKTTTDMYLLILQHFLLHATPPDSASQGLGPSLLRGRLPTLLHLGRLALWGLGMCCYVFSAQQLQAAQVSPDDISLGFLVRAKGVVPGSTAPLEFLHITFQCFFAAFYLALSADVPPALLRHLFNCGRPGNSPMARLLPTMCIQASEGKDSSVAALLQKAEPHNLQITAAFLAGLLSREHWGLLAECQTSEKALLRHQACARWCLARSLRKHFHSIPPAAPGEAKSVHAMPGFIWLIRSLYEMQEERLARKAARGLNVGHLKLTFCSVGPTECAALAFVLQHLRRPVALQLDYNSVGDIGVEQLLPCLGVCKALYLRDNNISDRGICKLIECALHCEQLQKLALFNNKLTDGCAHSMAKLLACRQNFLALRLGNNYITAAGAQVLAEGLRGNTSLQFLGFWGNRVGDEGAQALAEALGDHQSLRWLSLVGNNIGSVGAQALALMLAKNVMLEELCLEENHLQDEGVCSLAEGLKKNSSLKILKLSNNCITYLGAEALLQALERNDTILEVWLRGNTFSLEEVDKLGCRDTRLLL", "test": "NF-κB reporter assay in HEK293T/HEK293 cells expressing Nod2", "assay_type": "cell-based", "settings": "100 ng/ml (FIG. 18C)"}},
  "data": [
    {"molecule": "CCC(C)(C)C(=O)C(=O)N1CCCC[C@H]1C(=O)O[C@H](CCc1ccc(OC)c(OC)c1)c1cccc(OCC(=O)NCCNC(=O)COc2cccc([C@@H](CCc3ccc(OC)c(OC)c3)OC(=O)[C@@H]3CCCCN3C(=O)C(=O)C(C)(C)CC)c2)c1", "note": "[AP1510]", "values": [
      {"measurement": "NF-κB activation by Nod2-Fpk3 upon ligand", "setting": "[1]; 500 nM AP1510, suboptimal amounts (1 ng) of plasmid", "value": "induced NF-KB activation in a ligand-dependent manner"},
      {"measurement": "NF-κB activation by Nod2-Fpk3 construct lacking the LRRs", "setting": "[1]; 500 nM AP1510 or untreated", "value": "induced NF-κB activation in the absence and presence of AP1510"}
    ]},
    {"molecule": "TNFα", "values": [
      {"measurement": "activation of NF-κB", "setting": "[2]; HEK293T cells stimulated with 10 ng/ml of TNFα for 4 h", "value": "14±1", "unit": "fold"},
      {"measurement": "NF-κB activity in parental Rat1 cells", "setting": "[3]", "value": "induced NF-κB activity"}
    ]},
    {"molecule": "Cc1ccc(S(=O)(=O)/C=C/C#N)cc1", "note": "[Bay11-7082]", "values": [
      {"measurement": "inhibition of the DNA binding complex induced by MDP", "setting": "[4]", "value": "inhibited"}
    ]},
    {"molecule": "PaM3CysSerLyS4 [SBLP]", "values": [
      {"measurement": "TLR2-mediated cellular response (NF-κB)", "setting": "[5]", "value": "mediated a cellular response"},
      {"measurement": "induction of NF-κB reporter gene activity", "setting": "[2]; HEK293T cells transfected with control plasmid, 10 μg/ml of each pathogen product", "value": "No significant induction of reporter gene activity"}
    ]},
    {"molecule": "CC(=O)NC1C(O)OC(CO)C(O)C1OC(C)C(=O)NC(C)C(=O)NC(CCC(=O)O)C(N)=O", "note": "[MurNAc-L-Ala-L-isoGln]", "values": [
      {"measurement": "ability to stimulate NOD2 (stereoselectivity)", "setting": "[6]", "value": "eliminated the ability of MDP to stimulate NOD2"}
    ]}
  ]
}
